The results in this text go back to patent US20100297042A1, “Cosmetic Compositions and Methods Comprising Rhodiola Rosea” (priority 2004, published 2010).

The subject of this experiment is living skin equivalents (LSE). Put plainly: TT dimer immunostaining (DNA damage/repair) in UVB-irradiated living skin equivalents. It counts as cell-based. The settings on record: pre-treated 0.01% (PBS) 18 hours; 24 hours after 175 mJ of UVB. Here is the method: Excised portions (8 mm) are taken from living skin equivalents (LSE) and cultured over transwell membrane plates. These excised portions are pre-treated with rosavin or salidroside at 0.01% (PBS) for 18 hours. After the […], these excised portions are UVB-irradiated at 0 and 175 mJ/cm^2. One set of LSEs is immediately fixed in formalin to determine TT dimer formation (DNA damage). Following a 24-hour post-incubation, another set of skin equivalents is fixed in formalin. These samples are then prepared for TT dimer immunostaining. Sections are then evaluated using a microscope at 400× magnification. A section is selected from each sample and TT dimer containing cells are evaluated. DNA damage is measured by examining TT dimer stained cells immediately after UVB irradiation. DNA repair (TT dimer removal) in UVB-irradiated LSEs is determined by comparing the levels of TT dimer at 0 hr (immediately after UVB) with the levels of TT dimer at 24 hours (24 hours after UVB).

SMILES strings stand for the structures.

As to `O[C@@H]1[C@@H](O)[C@@H](OC/C=C/c2ccccc2)O[C@H](CO[C@@H]2OC[C@H](O)[C@H](O)[C@H]2O)[C@H]1O` [rosavin, cinnamyl alcohol vicyanoside rosavin], the TT dimer levels turned out to be 7%.

In the case of `OC[C@H]1O[C@@H](OCCc2ccc(O)cc2)[C@H](O)[C@@H](O)[C@@H]1O` [salidroside, hydroxyphenylethanol-2-D-glucopyranoside], the TT dimer levels turned out to be 12%.
